# Source: US12479816B2, “20-HETE formation inhibitors” (UNIVERSITY OF PITTSBURGH—OF THE COMMONWEALTH SYSTEM OF …, priority 2019, dated 2025)
# Read-outs that look alike come from different tables or passages of the source.
# What was measured:
# [1] = test system: 20-HETE formation (CYP4) in RKM; experiment: Inhibition of 20-HETE formation at 250 or 500 nM in RKM microsomal incubations; format: biochemical, rat; conditions: RKM 300 μg/ml; for RKM % inh. @ 500 nM: 500 nM compound
# Method: To screen the inhibitory effects against 20-HETE formation, compounds were screened in HLM, RLM, RKM and rCYP4F2 microsomal incubations. Compounds dissolved in either 100% methanol or 100% DMSO to yield 10 mM stock solution. Microsomal incubations containing HLM, RLM, RKM (300 μg/ml) or rCYP4F2 (25 pmol/mL), AA (100 μM), NADPH (1 mM) treated with test compounds at various concentrations (500 nM or 250 nM) in a 1 ml total volume in incubation buffer (0.12 M potassium phosphate buffer containing 5 mM magnesium chloride). Reaction was started by adding NADPH to the incubates and was carried out at 37° C. in a shaking water bath for 20 min. Reaction was stopped by placing tubes on ice, followed by adding 125 μl 20-HETE-d6 as internal standard to each sample. Microsomal incubations were extracted with 3 ml ethyl ether twice, dried down under nitrogen gas and reconstituted in 125 μl 80:20 methanol:deionized H2O for analysis. 20-HETE formation was quantified using a validated UPLC-MS/MS assay and normalized by vehicle group. Each compound had three replications (n=3). Vehicle group was used as control to calculate percentage of 20-HETE formation rate. HET0016 (250 nM) was used as positive control. Incubates without NADPH group served as the negative control. An Acquity ultra performance LC autosampler (Waters, Milford, MA) was used to isolate 20-HETE on an UPLC BEH C18, 1.7 μm (2.1×100 mm) reversed-phase column (Waters, Milford, MA) protected by a guard column (2.1×5 mm; Waters, Milford, MA) of the same packing material. Column temperature was maintained at 55° C. Mobile phases consisted of 0.005% acetic acid, 5% acetonitrile in deionized water (A) and 0.005% acetic acid in acetonitrile (B). The flow rate for mobile phases is 0.5 ml/min. The initial mixture of mobile phase was 65:35 of A and B. Mobile phase B increased at 0.4 minutes after injection from 35% to 70% in a linear gradient over 4 minutes, and again increased to 95% over 0.5 minutes where it remained for 0.3 minutes. This was followed by a linear return to initial conditions over 0.1 minutes with a 1.5 minute pre-equilibration period prior to the next sample run. Total run time was 6.4 minutes for each injection. Injection volumes were 7.5 μl. Mass spectrometric analysis was carried out using a TSQ Quantum Ultra (Thermo Fisher Scientific, San Jose, CA) triple quadrupole mass spectrometer using heated electrospray ionization (HESI). Mass spectrometer was operated in negative selective reaction monitoring (SRM) mode with unit resolutions at both Q1 and Q3 set at 0.70 Da full width at half maximum. Scan time was set at 0.01 s and collision gas pressure was 1.3 mTorr. Quantitation of 20-HETE by SRM was performed by monitoring the m/z. Analytical data was acquired and analyzed using Xcaliber 3.0 data system (ThermoFinnigan, San Jose, CA).
# [2] = Turbidometric solubility determination; format: physicochemical; conditions: PBS with 1% DMSO, aqueous buffer, kinetic from dmso stock, room temperature
# Method: Solubility determinations shown in Table 3 were obtained turbidometrically and in a manner similar to the one described in Perez et al., J. Biomol. Screen, 2015, 20(2), 254-64. The method requires small volumes of 100× stock concentration drug solution to be prepared in DMSO 0, 0.23, 0.47, 0.94, 1.88, 3.75, 7.5, 15.0, 30.0 and […]. The stock drug concentrations are then diluted 1:100 added into triplicate wells containing PBS in a clear bottom 384 well microtiter to achieve final testing concentrations of 0, 2.3, 4.7, 9.4, 18.8, 37.5, 75, 150, 300, 600 μM in 1% DMSO. The plate is allowed to equilibrate with constant shaking for 2 hours at room temperature. The plate is then placed in a SpectroMax V plate reader to measure absorbance at 620 nm. Increase in absorbance is evident in test wells which precipitation of the compound is evident. The plot of OD620 vs. drug concentration is used to calculate the maximum solubility limit as determined by a statistically significant increase in absorbance above the background levels.
# [3] = test system: 20-HETE formation (CYP4) in HLM; experiment: Inhibition of 20-HETE formation at 250 or 500 nM in HLM microsomal incubations; format: biochemical, human; conditions: HLM 300 μg/ml, AA 100 μM, 20 min; for HLM % inh. @ 500 nM: 500 nM compound
# Procedure, shortened: (§1)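 20-HETE formation, measured by UPLC-MS/MS after ether extraction, is reported as percentage of vehicle control, triplicates. Incubations: 300 μg/ml microsomal protein or 25 pmol/mL rCYP4F2, AA 100 μM, NADPH 1 mM, 20 min at 37° C.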
# rCYP4F2 = molecular target: T1, rCYP4F2 (Homo sapiens, UniProt P78329); experiment: Inhibition of 20-HETE formation at 250 or 500 nM in rCYP4F2 incubations; format: biochemical; conditions: rCYP4F2 25 pmol/mL; for inhibition at 0.5 µM: 500 nM compound, read-out: rCYP4F2 % inh. @ 500 nM
# T1 sequence (P78329 5-520): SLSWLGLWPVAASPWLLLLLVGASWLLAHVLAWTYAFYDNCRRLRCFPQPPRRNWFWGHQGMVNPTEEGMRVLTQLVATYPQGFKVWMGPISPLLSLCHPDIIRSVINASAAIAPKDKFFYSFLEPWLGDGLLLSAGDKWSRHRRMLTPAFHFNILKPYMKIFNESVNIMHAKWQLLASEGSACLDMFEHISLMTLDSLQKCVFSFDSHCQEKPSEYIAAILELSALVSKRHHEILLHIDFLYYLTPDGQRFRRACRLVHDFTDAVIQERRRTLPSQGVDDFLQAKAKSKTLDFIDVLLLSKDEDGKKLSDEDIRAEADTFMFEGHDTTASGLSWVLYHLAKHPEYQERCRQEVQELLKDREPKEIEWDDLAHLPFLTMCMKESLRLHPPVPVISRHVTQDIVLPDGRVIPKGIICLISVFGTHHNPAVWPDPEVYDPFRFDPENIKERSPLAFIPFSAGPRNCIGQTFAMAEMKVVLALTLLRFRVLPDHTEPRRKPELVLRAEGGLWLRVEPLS
# Procedure, shortened: as §1
# [4] = test system: 20-HETE formation (CYP4) in RLM; experiment: Inhibition of 20-HETE formation at 250 or 500 nM in RLM microsomal incubations; format: biochemical, rat; conditions: RLM 300 μg/ml; for RLM % inh. @ 500 nM: 500 nM compound
# Procedure, shortened: as §1
Structure (SMILES),RKM % inh. @ 500 nM [1],"solubility at 2 h ([2]; OD620, read-out: Max Solub)",solubility at 2 h ([2]; read-out: Solubility_ug/mL),HLM % inh. @ 500 nM [3],inhibition at 0.5 µM (rCYP4F2),RLM % inh. @ 500 nM [4],RKM % inh. @ 250 nM ([1]; 250 nM compound),HLM % inh. @ 250 nM ([3]; 250 nM compound),"inhibition at 0.25 µM (rCYP4F2; 250 nM compound, read-out: rCYP4F2 % inh. @ 250 nM)",RLM % inh. @ 250 nM ([4]; 250 nM compound)
"CC(=O)N(C)c1ccc(C2CCN(c3ccn[nH]3)CC2)cc1 [Compound 27, N-(4-(1-(1H-Pyrazol-5-yl)piperidin-4-yl)phenyl)-N-methylacetamide]",0.00%,> 600 µM,179 µg/mL,20.00%,14%,8.00%,–,–,–,–
"COc1ccc(C2CCN(c3ccn[nH]3)CC2)cn1 [Compound 31, 5-(1-(1H-Pyrazol-5-yl)piperidin-4-yl)-2-methoxypyridine]",9.00%,> 600 µM,155 µg/mL,35.00%,44%,0.00%,–,–,–,–
"COC(=O)c1ccc(C2CCN(c3ccn[nH]3)CC2)cc1 [Compound 11, Methyl 4-(1-(1H-pyrazol-5-yl)piperidin-4-yl)benzoate]",1.60%,–,–,0.00%,66.5%,3.60%,–,–,–,–
"COc1cc(C2CCN(c3ccn[nH]3)CC2)ccn1 [Compound 16, 4-(1-(1H-Pyrazol-5-yl)piperidin-4-yl)-2-methoxypyridine]",0.00%,–,–,27.00%,28%,29.00%,–,–,–,–
"Cc1ccccc1C1CCN(c2ccn[nH]2)CC1 [Compound 35, 1-(1H-Pyrazol-5-yl)-4-(o-tolyl)piperidine]",4.00%,–,–,20.00%,20%,0.00%,–,–,–,–
"c1cnc(N2CCN(c3cn[nH]c3)CC2)nc1 [Compound 4, 2-(4-(1H-Pyrazol-4-yl)piperazin-1-yl)pyrimidine]",0.00%,–,–,0.00%,0%,0.00%,–,–,–,–
"Fc1cccc(C2CCN(c3cn[nH]c3)CC2)c1 [Compound 49, 4-(3-Fluorophenyl)-1-(1H-pyrazol-4-yl)piperidine]",28.00%,–,–,80.00%,90%,31.00%,–,–,–,–
"COC(=O)c1ccc(C2CCN(c3cn[nH]c3)CC2)cc1 [Compound 12, Methyl 4-(1-(1H-pyrazol-4-yl)piperidin-4-yl)benzoate]",6.40%,–,–,0.00%,63.7%,18.30%,–,–,–,–
"Fc1ccc(C2CCN(c3ccn[nH]3)CC2)cc1 [Compound 18, 4-(4-Fluorophenyl)-1-(1H-pyrazol-5-yl)piperidine]",0.00%,–,–,66.00%,70%,41.00%,–,–,–,–
"COc1ccc(C2CCN(c3ccn[nH]3)CC2)c(F)c1 [Compound 46, 4-(2-Fluoro-4-methoxyphenyl)-1-(1H-pyrazol-5-yl)piperidine]",0.00%,–,–,78.00%,88%,47.00%,–,–,–,–
"Fc1ccccc1C1CCN(c2cn[nH]c2)CC1 [Compound 51, 4-(2-Fluorophenyl)-1-(1H-pyrazol-4-yl)piperidine]",26.00%,–,–,77.00%,94%,53.00%,–,–,–,–
"c1ccc(OC2CCN(c3ccn[nH]3)CC2)cc1 [Compound 55, 4-Phenoxy-1-(1H-pyrazol-5-yl)piperidine]",–,–,–,–,–,–,0.00%,12.11%,0%,0.00%
"Fc1ccc(C2CCN(c3cn[nH]c3)CC2)cc1 [Compound 17, 4-(4-Fluorophenyl)-1-(1H-pyrazol-4-yl)piperidine]",25.00%,–,–,80.00%,83%,57.00%,–,–,–,–
"COc1ccc(N2CCN(c3cn[nH]c3)CC2)cc1 [Compound 6, 1-(4-Methoxyphenyl)-4-(1H-pyrazol-4-yl)piperazine]",1.20%,–,–,31.80%,6.1%,0.00%,–,–,–,–
"c1ccc(N2CCN(c3cn[nH]c3)CC2)cc1 [Compound 5, 1-Phenyl-4-(1H-pyrazol-4-yl)piperazine]",0.00%,–,–,24.50%,2.6%,0.00%,–,–,–,–
"O=S(=O)(c1ccccc1)C1CCN(c2ccn[nH]2)CC1 [Compound 41, 4-(Phenylsulfonyl)-1-(1H-pyrazol-5-yl)piperidine]",0.00%,369 µM,108 µg/mL,32.00%,0%,0.00%,–,–,–,–
"O=S(=O)(c1ccccc1)C1CCN(c2cn[nH]c2)CC1 [Compound 42, 4-(Phenylsulfonyl)-1-(1H-pyrazol-4-yl)piperidine]",0.00%,–,–,5.00%,28%,0.00%,–,–,–,–
